From ChEMBL document CHEMBL4118256, “Second Generation of Mannich Base-Type Derivatives with in Vivo Activity against Trypanosoma cruzi” (J Med Chem, 2018)

Tested on: Trypanosoma cruzi
Assay: Antitrypanosomal activity against Trypanosoma cruzi MHOM/Pe/2011/Arequipa DTU 5 trypamastigotes infected in Balb/c mouse assessed as reduction in parasitaemia reactivation in stomach tissue at 20 mg/kg, po pretreated once daily for 5 consecutive days starting from day 10 post infection followed by cyclophosphamide-induced immunosuppression on day 100 post infection every 4 days for a maximum of 3 doses measured on day 127 post infection by PCR method
Format: functional
Design: scale not given: the % may be the effect or the level left

O=C(Cn1ccnc1[N+](=O)[O-])NCc1ccccc1 [BENZNIDAZOLE]
Activity: 33%
